Measurements taken from US4556713A, “6-Fluoro-5-nitroquinaldine” (Riker Laboratories, Inc., priority 1984, dated 1985).
Converted amounts (≈) assume the structure as drawn. Read-outs that look alike come from different tables or passages of the source.

Experiments:
[1] = test system: Klebsiella pneumoniae; assay: Plate dilution antimicrobial susceptibility, Klebsiella pneumoniae; conditions: for MIC: 24 h, read-out: Minimum Inhibitory Concentration
Experimental: (§1) Tryptone soy agar (oxoid) of the following composition is the culture medium.
(§2) A series of plates with these concentrations is prepared. Ten percent horse serum is added to one series of such plates. Aliquots of broth culture of any of twelve species of microorganisms are innoculated onto the agar plates contaning the various compound concentrations. The plates are incubated at 37° C. in a 10 percent carbon dioxide atmosphere for 18 to 24 hours. The microbial growth on each plate is read visually, and minimal inhibitory concentrations are recorded.
(§3) The tests were run both in the absence and in the presence of horse serum as described hereinabove.

[2] = test system: Escherichia coli; assay: Plate dilution antimicrobial susceptibility, Escherichia coli; conditions: for MIC: 24 h, read-out: Minimum Inhibitory Concentration
Experimental: as §1, §2, §3

[3] = test system: STREP. SPECIES; assay: Plate dilution antimicrobial susceptibility, Strep. species; conditions: for Minimum Inhibitory Concentration: Strep. species; for MIC: 24 h, read-out: Minimum Inhibitory Concentration, Strep. species
Experimental: as §1, §2, §3

[4] = test system: Staphylococcus aureus; assay: Plate dilution antimicrobial susceptibility, Staphylococcus aureus; conditions: for MIC: 24 h, read-out: Minimum Inhibitory Concentration
Experimental: as §1, §2, §3

[5] = test system: ENTEROCOCCUS; assay: Plate dilution antimicrobial susceptibility, Enterococcus; conditions: for MIC: 24 h
Experimental: as §1, §2, §3

[6] = test system: Pseudomonas aeruginosa; assay: Plate dilution antimicrobial susceptibility, Pseudomonas aeruginosa; conditions: for MIC: 24 h, read-out: Minimum Inhibitory Concentration
Experimental: as §1, §2, §3

[7] = test system: gram-positive and gram-negative microorganisms; assay: Plate dilution method, antimicrobial activity in general (gram-positive and gram-negative microorganisms); type: cell-based; conditions: in vitro
[8] = presence of 10 percent horse serum
[9] = read-out: Minimum Inhibitory Concentration, Enterococcus, absence of horse serum
[10] = read-out: Minimum Inhibitory Concentration, Enterococcus, presence of 10 percent horse serum

| SMILES | Minimum Inhibitory Concentration ([1]; absence of horse serum) [mg/L] | Minimum Inhibitory Concentration [1, 8] [mg/L] | Minimum Inhibitory Concentration ([2]; absence of horse serum) [mg/L] | Minimum Inhibitory Concentration [2, 8] | Minimum Inhibitory Concentration ([3]; absence of horse serum) | Minimum Inhibitory Concentration [3, 8] | Minimum Inhibitory Concentration ([4]; absence of horse serum) | Minimum Inhibitory Concentration [4, 8] | Minimum Inhibitory Concentration ([5]; absence of horse serum) | Minimum Inhibitory Concentration [5, 8] | Minimum Inhibitory Concentration ([6]; absence of horse serum) | Minimum Inhibitory Concentration [6, 8] | also measured |
| --- | --- | --- | --- | --- | --- | --- | --- | --- | --- | --- | --- | --- | --- |
| CC1CCc2c(N)c(Cl)cc3c(=O)c(C(=O)O)cn1c23 (stereo not shown) [8-NH2,9-Cl] | 100 | 100 | 10 | 10 mg/L | I | I | 100 mg/L | 100 mg/L | I | I | I | I |  |
| CC1CCc2c(N)c(F)cc3c(=O)c(C(=O)O)cn1c23 (stereo not shown) [8-amino compound, 8-amino-6,7-dihydro-9-fluoro-5-methyl-1-oxo-1H,5H-benzo[ij]quinolizine-2-carboxylic acid] |  |  |  |  |  |  |  |  |  |  |  |  | antimicrobial activity (in words) [7]: good antimicrobial activity against many species of microorganisms |
| CC1CCc2cc(F)cc3c(=O)c(C(=O)O)cn1c23 (stereo not shown) [Example 9-F] | 1 | 1 | 1 | 1 mg/L | 100 mg/L | 100 mg/L | 10 mg/L | 10 mg/L | 100 mg/L | 100 mg/L | 100 mg/L | 100 mg/L |  |
| COc1cc2c(=O)c(C(=O)O)cn3c2c(c1Cl)CCC3C (stereo not shown) [8-Cl, 9-OCH3] | 100 | 100 | 10 | 10 mg/L | 100 mg/L | 100 mg/L | 10 mg/L | 10 mg/L | 100 mg/L | 100 mg/L | I | I |  |
| CC1CCc2cc(Br)cc3c(=O)c(C(=O)O)cn1c23 (stereo not shown) [Example 9-Br] |  |  | 10 | 10 mg/L | 100 mg/L | 100 mg/L | 100 mg/L | 100 mg/L |  |  | I | I |  |
| CC1CCc2c(Cl)c(F)cc3c(=O)c(C(=O)[O-])cn1c23.[Na+] (stereo not shown) [8-Cl, 9-F sodium salt, sodium 8-chloro-6,7-dihydro-9-fluoro-5-methyl-1-oxo-1H,5H-benzo[ij]quinolizine-2-carboxylate] |  | 1 |  |  |  |  |  |  |  | 1 mg/L |  | 10 mg/L |  |
| CC1CCc2cc(Cl)cc3c(=O)c(C(=O)O)cn1c23 (stereo not shown) [Example 9-Cl] |  |  | 1 | 1 mg/L | 100 mg/L | 100 mg/L | 10 mg/L | 10 mg/L |  |  | I | I |  |
| CC1CCc2c(Br)c(F)cc3c(=O)c(C(=O)[O-])cn1c23.[Na+] (stereo not shown) [8-Br, 9-F sodium salt, sodium 8-bromo-6,7-dihydro-9-fluoro-5-methyl-1-oxo-1H,5H-benzo[ij]quinolizine-2-carboxylate] |  |  |  | .1 mg/L |  |  |  | .1 mg/L |  | 1 mg/L |  | 10 mg/L |  |
| CC1CCc2c(Cl)c(F)cc3c(=O)c(C(=O)O)cn1c23 (stereo not shown) [8-Cl, 9-F, 8-chloro-6,7-dihydro-9-fluoro-5-methyl-1-oxo-1H,5H-benzo[ij]quinolizine-2-carboxylic acid] |  | 1 |  | .1 mg/L |  |  |  |  |  |  |  | 10 mg/L | MIC [1]: 1 µg/mL (≈ 3.38 µM); MIC [2]: 0.1 µg/mL (≈ 0.338 µM); MIC [3, 8]: 10 µg/mL; MIC [4]: 0.1 µg/mL (≈ 0.338 µM); MIC [5, 9]: 1 µg/mL (≈ 3.38 µM); MIC [5, 10]: 10 µg/mL; MIC [6]: 10 µg/mL (≈ 33.8 µM) |
| CC(=O)Nc1c(Cl)cc2c(=O)c(C(=O)O)cn3c2c1CCC3C (stereo not shown) [8-NHCOCH3, 9-Cl] | 100 | 100 | 10 | 10 mg/L | I | I | I | I | I | I | I | I |  |
| Cc1cc2c(=O)c(C(=O)O)cn3c2c(c1Cl)CCC3C (stereo not shown) [8-Cl, 9-CH3] | 100 | 100 | 10 | 10 mg/L | 100 mg/L | 100 mg/L | 10 mg/L | 100 mg/L | 100 mg/L | I | 100 mg/L | I |  |
| CC1CCc2c(Cl)ccc3c(=O)c(C(=O)O)cn1c23 (stereo not shown) [Example 8-Cl] | 10 | 10 | 1 | 1 mg/L | 10 mg/L | 100 mg/L | 1 mg/L | 1 mg/L | 10 mg/L | 10 mg/L | 100 mg/L | 100 mg/L |  |
| CC1CCc2c(Br)c(F)cc3c(=O)c(C(=O)O)cn1c23 (stereo not shown) [8-Br, 9-F, 8-bromo-6,7-dihydro-9-fluoro-5-methyl-1-oxo-1H,5H-benzo[ij]quinolizine-2-carboxylic acid] |  | 1 |  | .1 mg/L |  |  |  | .1 mg/L |  |  |  | 10 mg/L | MIC [1]: 1 µg/mL (≈ 2.94 µM); MIC [2]: 0.1 µg/mL (≈ 0.294 µM); MIC ([3]; absence of horse serum): 1 µg/mL (≈ 2.94 µM); MIC [3, 8]: 10 µg/mL; MIC [4]: 0.1 µg/mL (≈ 0.294 µM); MIC [5, 9]: 1 µg/mL (≈ 2.94 µM); MIC [5, 10]: 1 µg/mL; MIC [6]: 10 µg/mL (≈ 29.4 µM) |
